Reference: US20150322033A1, “ANTIBACTERIAL AGENT” (priority 2012, published 2015)
≈ marks a conversion by molar mass, not a printed value. Like-named read-outs stand apart in the source and are kept apart here.

Columns and labels:
[1] = system: S. aureus Mu50; test: microbe, parasite or virus in culture; type: cell-based, Staphylococcus aureus; conditions: for MIC: Staphylococcus aureus; for MIC (mg/L) Mu50: Example 1, Tables 1 to 10;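 as to MIC ratio: ratio is FDA209P MIC divided by Mu50 MIC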
Protocol: (§1) S. aureus Mu50 (refer to Hiramatsu, K., Hanaki H., et al., J. Antimicrob. Chemother., 1997, 40(1), 135-6) or S. aureus FDA209P (ATCC 6538P) was cultured overnight at 37° C. in 4 mL of TBS (Tryptical Soy Broth, produced by Becton Dickinson) with shaking. After completion of the culture, the cells were suspended in fresh TBS to prepare a cell suspension showing an absorbance of 0.3 at 578 nm. Then, the cell suspension was diluted 500 times with CAMHB mentioned above.
(§2) CAMHB containing each test compound at each of the aforementioned concentrations was added to each well of a 96-well plate in a volume of 50 μL/well, the aforementioned cell suspension diluted 500 time was added to the well in a volume of 50 μL/well, and stationary culture was carried out overnight at 37° C.
(§3) MIC values (mg/L) of the flavones and quinolones against the strains were measured in the same manner as that of the measurement of MIC of Example 1, except that CAMHB containing each of the aforementioned flavones and quinolones prepared in Example 2 was used instead of CAMHB containing each of the test compounds.
(§4) MIC values of the flavones and quinolone for the strains were measured in the same manners as those of Example 1, except that S. aureus Mu50 NR-1 was also used as Staphylococcus aureus in addition to S. aureus FDA209P and S. aureus Mu50, cell suspensions of the strains were prepared.
(§5) In the same manner as that of Example 1, MIC values of M-246, M-21, J-Q21, and J-Q12.1 for Staphylococcus aureus were measured. M-246 and M-21 were obtained as commercial products, and as J-Q21 and J-Q12.1, those synthesized in Examples 6 and 7 were used.

[2] = system: S. aureus FDA209P (ATCC 6538P); test: microbe, parasite or virus in culture; type: cell-based, Staphylococcus aureus; conditions: for MIC: Staphylococcus aureus
Protocol: as §1, §2, §3, §4, §5

[3] = Example 1, Tables 1 to 10, read-out: MIC (mg/L) FDA209P
[4] = MU50, read-out: MIC Mu50, Example 8, Table 17
[5] = Example 8, Table 17, read-out: MIC FDA209P

Compound | MIC (mg/L) Mu50 [1] [mg/L] | MIC (mg/L) FDA209P ([2]; Example 1, Tables 1 to 10) [mg/L] | further results
2-phenylchromen-4-one (2-phenyl-1-benzopyran-4-one) [No. 25, reference compound] | – | – | MIC (mg/L) Mu50 (S80F, S84L) ([1]; Example 3, Table 13): 64 mg/L
O.Oc1cc(O)c2c(c1)OC(c1ccc(O)c(O)c1)C(O)C2 (single isomer, unassigned; (+)) [compound 132, (+)-3,3′,4′,5,7-Flavanpentol Hydrate] | – | – | MIC ([1]; MU50, read-out: MIC (mg/L) Mu50, Example 1, Tables 1 to 10): 128 mg/L; MIC [2, 3]: 128 mg/L
O=c1cc(-c2ccccc2)oc2ccccc12.O=c1cc(-c2ccccc2)oc2ccccc12 [Compound 25] | – | – | MIC ratio ([1]; (MIC value for S. aureus FDA209P)/(MIC value for S. aureus Mu50)): 2; MIC (mg/L) S. aureus Mu50 ([1]; Example 2, Table 12): 64 mg/L; MIC (mg/L) S. aureus FDA209P ([2]; Example 2, Table 12): 128 mg/L
O=c1cc(-c2ccc(O)cc2)oc2c(C3CC3)c(O)cc(O)c12 [J-Q12.1, 8-Cyclopropyl-5,7-dihydroxy-2-(4-hydroxyphenyl)-chromen-4-one] | – | – | MIC [1, 4]: 8 mg/L (≈ 25.8 µM); MIC [2, 5]: 8 mg/L (≈ 25.8 µM)
O=c1cc(-c2ccc(O)cc2)oc2c(C3CC3)c(O)ccc12 [J-Q21, 8-Cyclopropyl-7-hydroxy-2-(4-hydroxyphenyl)chromen-4-one] | – | – | MIC [1, 4]: 4 mg/L (≈ 13.6 µM); MIC [2, 5]: > 128 mg/L
O=c1c(O)c(-c2ccccc2)oc2cc(O)c(O)c(O)c12 [M-21] | – | – | MIC Mu50 ([1]; Example 8, Table 17): 16 µg/mL (≈ 55.9 µM); MIC FDA209P ([2]; Example 8, Table 17): 64 µg/mL (≈ 224 µM)
O=c1c(O)c(-c2ccc(O)cc2O)oc2cc(O)cc(O)c12 [compound 2] | 128 (≈ 424 µM) | >128 | –
O=c1c(O)c(-c2ccc(O)cc2O)oc2cc(O)cc(O)c12 [compound 3] | >128 | >128 | –
Cc1c(O)cc2oc(-c3ccc(O)c(O)c3)c(O)c(=O)c2c1O [compound 5] | 128 (≈ 405 µM) | 128 (≈ 405 µM) | –
Cc1c(O)cc(O)c2c(=O)cc(-c3ccccc3)oc12 [compound 8] | – | >128 | –
COc1ccc(-c2cc(=O)c3c(OC)c(OC)c(OC)c(OC)c3o2)cc1OC [compound 10] | – | 128 (≈ 318 µM) | –
COc1ccc(-c2cc(=O)c3c(OC)c(OC)c(OC)c(OC)c3o2)cc1 [compound 11] | >128 | >128 | –
O=c1c(O)c(-c2ccccc2)oc2ccccc12 [compound 12] | >128 | >128 | –
O=c1cc(-c2ccccc2)oc2ccc(O)cc12 [compound 13] | >128 | >128 | –
O=c1cc(-c2ccccc2)oc2c(O)c(O)ccc12 [compound 14] | 64 (≈ 252 µM) | 64 (≈ 252 µM) | –
COc1ccc2oc(-c3ccccc3)cc(=O)c2c1 [compound 16] | 128 (≈ 507 µM) | 128 (≈ 507 µM) | –
O=c1cc(-c2ccccc2)oc2cccc(O)c12 [compound 17] | 128 (≈ 537 µM) | 128 (≈ 537 µM) | –
COc1ccc(-c2cc(=O)c3c(OC)cc(OC)cc3o2)cc1 [compound 18] | 128 (≈ 410 µM) | 128 (≈ 410 µM) | –
COc1cc(OC)c2c(=O)c(OC)c(-c3ccc(OC)c(OC)c3)oc2c1 [compound 19] | >128 | >128 | –
COc1cc(OC)c2c(=O)cc(-c3ccccc3)oc2c1C [compound 21] | >128 | >128 | –
CC(C)Oc1ccc(-c2cc(=O)c3c(OC(C)C)cc(OC(C)C)c(I)c3o2)cc1 [compound 23] | >128 | >128 | –
COc1c(O)cc2oc(-c3ccc(O)cc3)cc(=O)c2c1O [compound 26] | – | – | MIC ([2]; read-out: MIC (mg/L) FDA209P): > 128 mg/L
COc1cc(-c2oc3c(OC)c(OC)c(OC)c(OC)c3c(=O)c2OC)cc2c1OCO2 [compound 35] | – | >128 | –
COc1cc(O)c(CN2CCCC(C)C2)c2oc(-c3ccccc3)cc(=O)c12 (stereo not drawn) [compound 53] | – | 128 (≈ 337 µM) | –
COc1cc(O)c2c(=O)c(-c3cc4c(cc3C)OCCO4)c(C)oc2c1 [compound 86] | – | >128 | –
CCc1oc2cc(O)cc(O)c2c(=O)c1-c1ccc(OC)cc1 [compound 90] | – | – | MIC [2, 3]: 128 mg/L (≈ 410 µM)
